According to publication PMC7883042 (Peptide Science (Hoboken, N.j.), 2021):

Target: SARS‐CoV‐2 RBD/ACE2 PPI in A549 cells overexpressing ACE2 (Severe acute respiratory syndrome coronavirus 2, UniProt P0DTC2)

## Ac-IEEQAKTFLDKFNHER8EDLFYQS5-NH2 (sidechain bridge or staple) [Peptide 8]
  entry of His‐tagged SARS‐CoV RBD into cells (immunofluorescence): show entry
